Test system: PBMC (T cell proliferation)
Assay: T cell proliferation assay, PHA-stimulated human PBMC (BrdU ELISA)
Format: cell-based
Settings: Homo sapiens, 48 h, read-out: IC50 (Tcell proliferation)
In short: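 BrdU ELISA readout of proliferation at 48 hours. Cells: human PBMC from healthy donors in 10% dialyzed FCS/RPMI1640, 1×10^5 per well, activated by 2 μg/ml phytohaemagglutinin in the presence of compound.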

Structure (SMILES)	IC50 [nM]
Oc1csc(-c2c(-c3c(F)cccc3Cl)noc2-c2cnn(-c3cccc(F)c3)c2C(F)(F)F)n1 [Example I-9, 2-(3-(2-chloro-6-fluorophenyl)-5-(1-(3-fluorophenyl)-5-(trifluoromethyl)-1H-pyrazol-4-yl)isoxazol-4-yl)thiazol-4-ol]	100 to 1000

Same assay, conditions: PHA-stimulated human PBMC, 48 hours, BrdU; column D; activity classes 1-4; read-out: IC50 (Tcell proliferation)

Structure (SMILES)	IC50 [nM]
Fc1cccc(Cl)c1-c1noc(-c2cnn(-c3ccncc3)c2C(F)(F)F)c1-c1nnco1 [IB-16, 2-(3-(2-chloro-6-fluorophenyl)-5-(1-(pyridin-4-yl)-5-(trifluoromethyl)-1H-pyrazol-4-yl)isoxazol-4-yl)-1,3,4-oxadiazole]	100 to 1000
Fc1cccc(Cl)c1-c1noc(-c2cnn(-c3cccc(Cl)c3)c2C(F)(F)F)c1-c1nccs1 [Example I-5, 3-(2-chloro-6-fluorophenyl)-5-(1-(3-chlorophenyl)-5-(trifluoromethyl)-1H-pyrazol-4-yl)-4-(thiazol-2-yl)isoxazole]	< 10
Fc1cccc(Cl)c1-c1noc(-c2cnn(-c3cccnc3)c2C(F)(F)F)c1-c1cnco1 [IB-32, 3-(2-chloro-6-fluorophenyl)-4-(oxazol-5-yl)-5-(1-(pyridin-3-yl)-5-(trifluoromethyl)-1H-pyrazol-4-yl)isoxazole]	1000 to 10000
Fc1cccc(-n2ncc(-c3onc(-c4c(F)cccc4Cl)c3-c3nnco3)c2C(F)(F)F)c1 [Example I-7, 2-(3-(2-chloro-6-fluorophenyl)-5-(1-(3-fluorophenyl)-5-(trifluoromethyl)-1H-pyrazol-4-yl)isoxazol-4-yl)-1,3,4-oxadiazole]	10 to 100

Same assay, conditions: human PBMC, 2 μg/ml PHA, 48 hours, BrdU; read-out: D: IC50 (Tcell proliferation)

Structure (SMILES)	IC50 [nM]
CCOC(=O)c1c(-c2c(F)cccc2Cl)noc1-c1cnn(-c2ccc(NC(C)=O)cc2)c1C(F)(F)F [Example B-99, ethyl 5-(1-(4-acetamidophenyl)-5-(trifluoromethyl-1H-pyrazol-4-yl)-3-(2-chloro-6-fluorophenyl)isoxazole-4-carboxylate]	1000 to 10000
COC(=O)c1c(-c2c(F)cccc2Cl)noc1-c1cnn(-c2cccnc2)c1C(F)(F)F [Example B-67, methyl 3-(2-chloro-6-fluorophenyl)-5-(1-(pyridin-3-yl)-5-(trifluoromethyl)-1H-pyrazol-4-yl)isoxazole-4-carboxylate]	10 to 100
COC(=O)c1c(-c2c(F)cccc2Cl)noc1-c1cnn(-c2cccc(Cl)c2Cl)c1C(F)(F)F [Example 4, methyl 3-(2-chloro-6-fluorophenyl)-5-(1-(2,3-dichlorophenyl)-5-(trifluoromethyl)-1H-pyrazol-4-yl)isoxazole-4-carboxylate]	1000 to 10000
CC(C)=NNC(=O)c1c(-c2c(F)cccc2Cl)noc1-c1cnn(-c2cccc(F)c2)c1 [Example B-29, 3-(2-chloro-6-fluorophenyl)-5-(1-(3-fluorophenyl)-1H-pyrazol-4-yl)-N′-(propan-2-ylidene)isoxazole-4-carbohydrazide]	1000 to 10000
CNC(=S)c1c(-c2c(F)cccc2Cl)noc1-c1cnn(-c2cccc(Cl)c2)c1C(F)(F)F [Example 72, 3-(2-chloro-6-fluorophenyl)-5-(1-(3-chlorophenyl)-5-(trifluoromethyl)-1H-pyrazol-4-yl)-N-methylisoxazole-4-carbothioamide]	100 to 1000
CNC(=S)c1c(-c2c(F)cccc2Cl)noc1-c1cnn(-c2ccc(F)cc2)c1C(F)(F)F [Example 76, 3-(2-chloro-6-fluorophenyl)-5-(1-(4-fluorophenyl)-5-(trifluoromethyl)-1H-pyrazol-4-yl)-N-methylisoxazole-4-carbothioamide]	1000 to 10000
COC(=O)c1c(-c2c(F)cccc2Cl)noc1-c1cnn(-c2cccc(Cl)c2)c1 [Example 115, methyl 3-(2-chloro-6-fluorophenyl)-5-(1-(3-chlorophenyl)-1H-pyrazol-4-yl)isoxazole-4-carboxylate]	1000 to 10000
COC(=O)Nc1c(-c2c(F)cccc2Cl)noc1-c1cnn(-c2cccc(F)c2)c1C(F)(F)F [Example 138, methyl 3-(2-chloro-6-fluorophenyl)-5-[1-(3-fluorophenyl)-5-(trifluoromethyl)-1H-pyrazol-4-yl]isoxazol-4-ylcarbamate]	100 to 1000
CCOC(=O)c1c(-c2onc(-c3c(F)cccc3Cl)c2C(=O)OC)cnn1CC(C)C [Example 29]	1000 to 10000
COC(=O)c1c(-c2c(F)cccc2Cl)noc1-c1cnn(-c2cc(Cl)cc(Cl)c2)c1C(F)(F)F [Example 68, methyl 3-(2-chloro-6-fluorophenyl)-5-(1-(3,5-dichlorophenyl)-5-(trifluoromethyl)-1H-pyrazol-4-yl)isoxazole-4-carboxylate]	10 to 100
CCOC(=O)c1c(-c2ccncc2F)noc1-c1cnn(-c2cccc(F)c2)c1C(F)(F)F [Example B-14, ethyl 5-(1-(3-fluorophenyl)-5-(trifluoromethyl)-1H-pyrazol-4-yl)-3-(3-fluoropyridin-4-yl)isoxazole-4-carboxylate]	1000 to 10000
O=C(c1c(-c2ccccc2Cl)noc1-c1cnn(-c2cccc(Cl)c2)c1C(F)(F)F)N1CCCO1 [Example B-62, (3-(2-chlorophenyl)-5-(1-(3-chlorophenyl)-5-(trifluoromethyl)-1H-pyrazol-4-yl)isoxazol-4-yl)(isoxazolidin-2-yl)methanone]	10 to 100
CC(=O)Nc1cccc(-n2ncc(-c3onc(-c4c(F)cccc4Cl)c3C(=O)OC(C)C)c2C(F)(F)F)c1 [Example B-78, isopropyl 5-(1-(3-acetamidophenyl)-5-(trifluoromethyl)-1H-pyrazol-4-yl)-3-(2-chloro-6-fluorophenyl)isoxazole-4-carboxylate]	100 to 1000
CCOC(=O)c1c(-c2c(F)cccc2Cl)noc1-c1cnn(-c2cccnc2)c1C(F)(F)F [Example B-37, ethyl 3-(2-chloro-6-fluorophenyl)-5-(1-(pyridin-3-yl)-5-(trifluoromethyl)-1H-pyrazol-4-yl)-isoxazole-4-carboxylate]	< 10
COC(=O)c1c(-c2c(F)cccc2Cl)noc1-c1cnn(-c2ccc(Cl)cc2Cl)c1C(F)(F)F [Example 7, methyl 3-(2-chloro-6-fluorophenyl)-5-(1-(2,4-dichlorophenyl)-5-(trifluoromethyl)-1H-pyrazol-4-yl)isoxazole-4-carboxylate]	1000 to 10000
COC(=O)c1c(-c2c(F)cccc2Cl)noc1-c1cnn(-c2ccccc2F)c1C(F)(F)F [Example 1, methyl 3-(2-chloro-6-fluorophenyl)-5-(1-(2-fluorophenyl)-5-(trifluoromethyl)-1H-pyrazol-4-yl)isoxazole-4-carboxylate]	10 to 100
COC(=O)c1c(-c2c(F)cccc2Cl)noc1-c1cnn(-c2cc(F)cc(F)c2)c1C(F)(F)F [Example 50, methyl 3-(2-chloro-6-fluorophenyl)-5-(1-(3,5-difluorophenyl)-5-(trifluoromethyl)-1H-pyrazol-4-yl)isoxazole-4-carboxylate]	< 10
CON(C)C(=O)c1c(-c2c(F)cccc2Cl)noc1-c1cnn(-c2ccccc2Br)c1C(F)(F)F [Example B-74, 5-(1-(2-bromophenyl)-5-(trifluoromethyl)-1H-pyrazol-4-yl)-3-(2-chloro-6-fluorophenyl)-N-methoxy-N-methylisoxazole-4-carboxamide]	1000 to 10000
COC(=O)c1c(-c2c(F)cccc2Cl)noc1-c1cnn(-c2c(F)c(F)cc(F)c2F)c1C(F)(F)F [Example 47, methyl 3-(2-chloro-6-fluorophenyl)-5-(1-(2,3,5,6-tetrafluorophenyl)-5-(trifluoromethyl)-1H-pyrazol-4-yl)isoxale-4-carboxylate]	100 to 1000
CCOC(=O)c1c(-c2c(Cl)cncc2Cl)noc1-c1cnn(-c2ccccc2F)c1C(F)(F)F [Example B-9, ethyl 3-(3,5-dichloropyridin-4-yl)-5-(1-(2-fluorophenyl)-5-(trifluoromethyl)-1H-pyrazol-4-yl)isoxazole-4-carboxylate]	10 to 100
COCCn1ncc(-c2onc(-c3c(F)cccc3Cl)c2C(=O)OC)c1C(F)(F)F [Example 102, methyl 3-(2-chloro-6-fluorophenyl)-5-(1-(2-methoxyethyl)-5-(trifluoromethyl)-H-pyrazol-4-yl)isoxazole-4-carboxylate]	100 to 1000
CCOC(=O)c1c(-c2c(F)cccc2Cl)noc1-c1cnn(-c2cccc([N+](=O)[O-])c2)c1C(F)(F)F [Example B-90, ethyl 3-(2-chloro-6-fluorophenyl)-5-(1-(3-nitrophenyl)-5-(trifluoromethyl)-1H-pyrazol-4-yl)isoxazole-4-carboxylate]	10 to 100
COC(=O)c1c(-c2c(F)cccc2Cl)noc1-c1cnn(-c2ccc(S(C)(=O)=O)cc2)c1C(F)(F)F [Example 85, methyl 3-(2-chloro-6-fluorophenyl)-5-(1-(4-(methylsulfonyl)phenyl)-5-(trifluoromethyl)-1H-pyrazol-4-yl)isoxazole-4-carboxylate]	1000 to 10000
O=C(NC1CCCCC1)c1c(-c2c(F)cccc2Cl)noc1-c1cnn(-c2ccccc2F)c1C(F)(F)F [Example 18, 3-(2-chloro-6-fluorophenyl)-N-cyclohexyl-5-(1-(2-fluorophenyl)-5-(trifluoromethyl)-1H-pyrazol-4-yl)isoxazole-4-carboxamide]	1000 to 10000
O=C(c1c(-c2c(F)cccc2Cl)noc1-c1cnn(-c2ccccc2F)c1C(F)(F)F)N1CCCCC1 [Example 21, (3-(2-chloro-6-fluorophenyl)-5-(1-(2-fluorophenyl)-5-(trifluoromethyl)-1H-pyrazol-4-yl)isoxazol-4-yl)(piperidin-1-yl)methanone]	10 to 100
CCOC(=O)c1c(-c2c(F)cccc2Cl)noc1-c1cnn(-c2ccc(C#N)cc2)c1C(F)(F)F [Example B-40, ethyl 3-(2-chloro-6-fluorophenyl)-5-(1-(4-cyanophenyl)-5-(trifluoromethyl)-1H-pyrazol-4-yl)-isoxazole-4-carboxylate]	1000 to 10000
CCOC(=O)c1c(-c2ccncc2F)noc1-c1cnn(-c2ccccn2)c1C(F)(F)F [Example B-8, ethyl 3-(3-fluoropyridin-4-yl)-5-(1-(pyridin-2-yl)-5-(trifluoromethyl)-1H-pyrazol-4-yl)isoxazole-4-carboxylate]	1000 to 10000

Source: patent publication US8592456B2 (4SC Discovery GmbH, priority 2011, dated 2013)
